# Test results from patent publication US4902690A, “Pest controlling compositions” (The General Hospital Corporation, priority 1988, dated 1990).
# Several values for one entry are separate records, joined by “and”; a condition that tells them apart may be missing. Identical values can stand only once. Like-named read-outs stand apart in the source and are kept apart here.
# How the values were obtained:
# [1] = tested on: octopamine-sensitive adenylate cyclase (firefly lantern octopamine receptor); test: Octopamine-sensitive adenylate cyclase activation, firefly light organ broken cell preparation; format: biochemical, firefly (Photinus pyralis); conditions: for Ka ratio / Vmax: FIG. 1, formamidines; for Vmax: % of octopamine
# [2] = tested on: tobacco hornworms (Manducca sexta); test: In vivo leaf test (feeding on sprayed tomato leaves); conditions: for effect of adding IBMX on antifeeding / pesticidal activity of the compound: IBMX 0.1%, FIGS. 9, 10, 17, Tables 4, 7, 8, FIG. 9 at 72 hours
# Manducca eggs = test: Ovacidal test (eggs dipped in drug solutions); format: in vivo, Manducca sexta
# Description: In some cases, test agents were tested for ovacidal activity by dipping groups of 10-50 Manducca eggs in drug solutions for 60 seconds and then determining the percentage of eggs which produced viable larvae. A compound or synergist with active ovacidal activity was one which decreased the percentage of eggs hatched, relative to control.
# [3] = Table 1, phenylethylamines, >1 = better than (±)-p-octopamine
# [4] = Table 1, phenylethylamines, maximal activation as % of that by (±)-p-octopamine, N.A. = No Activity
# [5] = agonist 1 gm/100 ml + PDE Inhibitor IBMX 0.1 g/100 ml
# [6] = agonist 1 gm/100 ml, No PDE Inhibitor
# [7] = agonist 10^-1 gm/100 ml + PDE Inhibitor IBMX 0.1 g/100 ml
# [8] = agonist 10^-1 gm/100 ml, No PDE Inhibitor
# [9] = agonist 10^-2 gm/100 ml + PDE Inhibitor IBMX 0.1 g/100 ml
# [10] = agonist 10^-2 gm/100 ml, No PDE Inhibitor
# [11] = agonist 1 gm/100 ml + IBMX 0.1 g/100 ml
# [12] = agonist 10^-1 gm/100 ml + IBMX 0.1 g/100 ml
# [13] = agonist 10^-2 gm/100 ml + IBMX 0.1 g/100 ml
# [14] = agonist 10^-3 gm/100 ml + PDE Inhibitor IBMX 0.1 g/100 ml
# [15] = agonist 10^-3 gm/100 ml, No PDE Inhibitor
# [16] = agonist 10^-4 gm/100 ml + PDE Inhibitor IBMX 0.1 g/100 ml
# [17] = agonist 10^-4 gm/100 ml, No PDE Inhibitor
# [18] = Table 2, clonidines, N.A. = no activity
# [19] = Table 2, inhibitory properties at the octopamine receptor
# [20] = agonist 0.3 (3 × 10^-1) gm/100 ml + PDE Inhibitor IBMX 0.1 g/100 ml
# [21] = agonist 0.3 (3 × 10^-1) gm/100 ml, No PDE Inhibitor
smiles,measurement,setting,value
"CN(C)CC(O)c1ccc(O)cc1 (racemic) [(±)-N,Ndimethyloctopamine]",Ka^oct /Ka^B ratio,[1]; [3],0.9
same,Vmax (% OCT),[1]; [4],43 ± 4 % OCT
CNCC(O)c1ccc(O)cc1 (racemic) [(±)-Nmethyloctopamine],% Leaf Remaining,[2]; [5],90%
same,% Leaf Remaining,[2]; [6],30%
same,% Leaf Remaining,[2]; [7],55%
same,% Leaf Remaining,[2]; [8],< 5%
same,% Leaf Remaining,[2]; [9],42%
same,% Leaf Remaining,[2]; [10],< 5%
same,Ka^oct /Ka^B ratio,[1]; [3],1.8
same,Vmax (% OCT),[1]; [4],108 ± 10 % OCT
NCC(O)c1cccc(O)c1 (racemic) [(±)-m-octopamine],effect of adding IBMX on antifeeding / pesticidal activity of the compound,[2],failed to increase pesticidal activity
same,Ka^oct /Ka^B ratio,[1]; [3],0.1
same,Vmax (% OCT),[1]; [4],9 ± 1 % OCT
COc1cc(C(O)CN)ccc1O (racemic) [(±)-normetanephrine],Ka^oct /Ka^B ratio,[1]; [3],0.07
same,Vmax (% OCT),[1]; [4],68 ± 2 % OCT
NCC(O)c1ccccc1O (racemic) [(±)-o-octopamine],Ka^oct /Ka^B ratio,[1]; [3],0.05
same,Vmax (% OCT),[1]; [4],23 ± 1 % OCT
CC(N)Cc1ccc(O)cc1 (racemic) [(±)-p-hydroxyamphetamine],Ka^oct /Ka^B ratio,[1]; [3],< 0.05
same,Vmax (% OCT),[1]; [4],8 ± 3 % OCT
CC(N)C(O)c1ccc(O)cc1 (racemic) [(±)-α-methyloctopamine],Ka^oct /Ka^B ratio,[1]; [3],0.05
same,Vmax (% OCT),[1]; [4],44 ± 2 % OCT
CNC(C)C(O)c1ccc(O)cc1 (racemic) [(±)-α-methylsynephrine],Ka^oct /Ka^B ratio,[1]; [3],< 0.01
same,Vmax (% OCT),[1]; [4],7 ± 2 % OCT
C[C@H](N)[C@H](O)c1ccccc1 (relative stereo) [(±)-norephedrine],Ka^oct /Ka^B ratio,[1]; [3],< 0.09
same,Vmax (% OCT),[1]; [4],8 ± 1 % OCT
"NCC(O)c1ccc(Cl)cc1Cl (stereo not shown) [2,4-dichlorophenylethanolamine]",% Leaf Remaining,[2]; [5],80%
same,% Leaf Remaining,[2]; [6],10%
same,% Leaf Remaining,[2]; [7],50%
same,% Leaf Remaining,[2]; [8],< 5%
same,% Leaf Remaining,[2]; [9],30%
same,% Leaf Remaining,[2]; [10],< 5%
CNC[C@H](O)c1ccc(O)c(O)c1 [(-)-epinephrine],Ka^oct /Ka^B ratio,[1],0.20
same,Vmax (% OCT),[1]; light organ homogenate,75 ± 2 % OCT
CC(C)NC[C@H](O)c1ccc(O)c(O)c1 [(-)-isoproterenol],Vmax (% OCT),[1]; [4],19 ± 1 % OCT
NC[C@H](O)c1ccc(O)c(O)c1 [(-)-nonrepinephrine],Ka^oct /Ka^B ratio,[1]; [3],0.13
same,Vmax (% OCT),[1]; [4],72 ± 1 % OCT
NC[C@H](O)c1ccc(O)cc1 [(-)-p-octopamine],Vmax (% OCT),[1]; [4],101 ± 2 % OCT
CNC[C@H](O)c1cccc(O)c1 [(-)-phenylephrine],Ka^oct /Ka^B ratio,[1]; [3],< 0.2
same,Vmax (% OCT),[1]; [4],17 ± 1 % OCT
"Cc1cc(Cl)ccc1N=CN(C)C [CDM, chlordimeform]",% Living Larvae,Manducca eggs; [11],2%
same,% Living Larvae,Manducca eggs; [6],2%
same,% Living Larvae,Manducca eggs; [12],10%
same,% Living Larvae,Manducca eggs; [8],25%
same,% Living Larvae,Manducca eggs; [13],10%
same,% Living Larvae,Manducca eggs; [10],60%
same,% Leaf Remaining,[2]; [5],90%
same,% Leaf Remaining,[2]; [6],90%
same,% Leaf Remaining,[2]; [7],90%
same,% Leaf Remaining,[2]; [8],70%
same,% Leaf Remaining,[2]; [9],85%
same,% Leaf Remaining,[2]; [10],< 5%
same,% Leaf Remaining,[2]; [14],65%
same,% Leaf Remaining,[2]; [15],< 5%
same,% Leaf Remaining,[2]; [16],50%
same,% Leaf Remaining,[2]; [17],< 5%
same,Ka ratio,[1],0.5
same,Vmax,[1],about 10%
"CNC=Nc1ccc(Cl)cc1C [DCDM, mono-demethylchlordimeform]",% Living Larvae,Manducca eggs; [11],2%
same,% Living Larvae,Manducca eggs; [6],2%
same,% Living Larvae,Manducca eggs; [12],3%
same,% Living Larvae,Manducca eggs; [8],50%
same,% Living Larvae,Manducca eggs; [13],10%
same,% Living Larvae,Manducca eggs; [10],50%
same,% Leaf Remaining,[2]; [9],98%
same,% Leaf Remaining,[2]; [10],95%
same,% Leaf Remaining,[2]; [14],90%
same,% Leaf Remaining,[2]; [15],45%
same,% Leaf Remaining,[2]; [16],75%
same,% Leaf Remaining,[2]; [17],< 5%
same,more potent than DDCDM against the octopamine receptor,[1],50%
same,Ka ratio,[1],6
same,Vmax,[1],76%
Clc1ccc(Cl)c(N=C2NCCN2)c1 [NC 2],Ka^oct /Ka^B ratio,[1]; [18],1.1
same,Ki,[1]; [19],23 µM
Clc1cc(Cl)c(N=C2NCCN2)cc1Cl [NC 3],Ka^oct /Ka^B ratio,[1]; [18],2.8
Cc1cccc(C)c1N=C1NCCN1 [NC 4],Ka^oct /Ka^B ratio,[1]; [18],0.41
CCc1cccc(CC)c1N=C1NCCN1 [NC 5],effect of adding IBMX on antifeeding / pesticidal activity of the compound,[2],substantial increases in the potency
same,% Leaf Remaining,[2]; [20],70%
same,% Leaf Remaining,[2]; [21],40%
same,% Leaf Remaining,[2]; [7],45%
same,% Leaf Remaining,[2]; [8],30%
same,% Leaf Remaining,[2]; [9],30%
same,% Leaf Remaining,[2]; [10],15%
same,% Leaf Remaining,[2]; [14],17%
same,% Leaf Remaining,[2]; [15],10%
same,Ka^oct /Ka^B ratio,[1]; [18],19.0 and ~20
Brc1cccc(Br)c1N=C1NCCN1 [NC 6],Ka^oct /Ka^B ratio,[1]; [18],2.1
Clc1ccc(N=C2NCCN2)c(Cl)c1 [NC 8],Ka^oct /Ka^B ratio,[1]; [18],3.7
Cc1ccc(N=C2NCCN2)c(C)c1 [NC 9],Ka^oct /Ka^B ratio,[1]; [18],5.1
c1ccc(N=C2NCCN2)cc1 [NC 10],antifeeding activity of the compound by itself,"[2]; FIGS. 10, 13, 17, Table 8",inactive in vivo
same,effect of adding IBMX on antifeeding / pesticidal activity of the compound,[2],not synergized by the PDE inhibitor
same,% Leaf Remaining,[2]; [5],15%
same,% Leaf Remaining,[2]; [6],5%
same,% Leaf Remaining,[2]; [7],13%
same,% Leaf Remaining,[2]; [8],5%
same,% Leaf Remaining,[2]; [9],15%
same,% Leaf Remaining,[2]; [10],5%
same,% Leaf Remaining,[2]; [14],12%
same,% Leaf Remaining,[2]; [15],5%
same,Ki,[1]; [19],190 µM
Clc1cc(Cl)c(N=C2NCCN2)c(Cl)c1 [NC 11],Ka^oct /Ka^B ratio,[1]; [18],1.9
Brc1ccc(N=C2NCCN2)cc1 [NC 12],Ka^oct /Ka^B ratio,[1]; [18],3.0
Cc1cc(C)c(N=C2NCCN2)c(C)c1 [NC 13],Ka^oct /Ka^B ratio,[1]; [18],4.3
Nc1cc(Cl)c(N=C2NCCN2)c(Cl)c1 [NC 14],Ka^oct /Ka^B ratio,[1]; [18],0.7
same,Ki,[1]; [19],440 µM
CN(C)c1cc(Cl)c(N=C2NCCN2)c(Cl)c1 [NC 15],Ka^oct /Ka^B ratio,[1]; [18],1.9
CN(CCCl)c1cc(Cl)c(N=C2NCCN2)c(Cl)c1 [NC 16],Ki,[1],10 µM
same,Ka^oct /Ka^B ratio,[1]; [18],4.8
CNCCc1ccc(O)c(O)c1 [Nmethyldopamine],Ka^oct /Ka^B ratio,[1]; [3],0.19
same,Vmax (% OCT),[1]; [4],11 ± 1 % OCT
Clc1cccc(Cl)c1N=C1NCCN1 [clonidine],effect of adding IBMX on antifeeding / pesticidal activity of the compound,[2],substantial increases in the potency
same,% Leaf Remaining,[2]; [5],63%
same,% Leaf Remaining,[2]; [6],65%
same,% Leaf Remaining,[2]; [7],55%
same,% Leaf Remaining,[2]; [8],20%
same,% Leaf Remaining,[2]; [9],55%
same,% Leaf Remaining,[2]; [10],5%
same,Ka^oct /Ka^B ratio,[1],0.95
same,Ki,[1],20 µM
NCCc1ccc(O)c(O)c1 [dopamine],Ka^oct /Ka^B ratio,[1]; [3],0.26
same,Vmax (% OCT),[1]; [4],4 ± 1 % OCT
NCC(O)c1ccc(O)c(Cl)c1 (stereo not shown) [m-chloro-octopamine],Ka^oct /Ka^B ratio,[1]; [3],0.28
same,Vmax (% OCT),[1]; [4],77 ± 1 % OCT
"Nc1ncnc2c1nc(Sc1ccc(Cl)cc1)n2[C@@H]1O[C@@H]2COP(=O)(O)O[C@H]2[C@H]1O [p-Cl-phenylthio cyclic AMP, 8-p-chlorophenylthio-cyclic AMP]",antifeeding activity in the absence of IBMX,"[2]; concentration of 1%, FIGS. 18, 19",some antifeeding activity
NCC(O)c1ccc(F)cc1 (stereo not shown) [p-fluoro-phenylethanolamine],% Leaf Remaining,[2]; [20],95%
same,% Leaf Remaining,[2]; [21],25%
same,% Leaf Remaining,[2]; [7],98%
same,% Leaf Remaining,[2]; [9],80%
same,% Leaf Remaining,[2]; [14],50%
same,% Leaf Remaining,[2]; [15],< 5%
COc1ccc(CCN)cc1 [p-methoxphenylethylamine],Ka^oct /Ka^B ratio,[1]; [3],0.10
same,Vmax (% OCT),[1]; [4],6 ± 3 % OCT
NCCc1ccc(O)cc1 [tyramine],Ka^oct /Ka^B ratio,[1]; [3],0.15
same,Vmax (% OCT),[1]; [4],57 ± 1 % OCT
NCCc1ccccc1 [β-phenylethylamine],Ka^oct /Ka^B ratio,[1]; [3],0.03
same,Vmax (% OCT),[1]; [4],13 ± 2 % OCT
